How the values were obtained:
LOX IMVI [1] = test: Growth inhibition of human LOXIMVI cells assessed as cell growth at 10 uM after 48 hrs by sulforhodamine B assay; assay type: functional; conditions: read-out: Activity
OVCAR-5 = test: Growth inhibition of human OVCAR5 cells after 48 hrs by sulforhodamine B assay; assay type: functional; conditions: OVCAR-5, 48 h
OVCAR-4 = test: Growth inhibition of human OVCAR4 cells after 48 hrs by sulforhodamine B assay; assay type: functional; conditions: OVCAR-4, 48 h
ACHN = test: Growth inhibition of human ACHN cells assessed as cell growth at 10 uM after 48 hrs by sulforhodamine B assay; assay type: functional; conditions: read-out: Activity
SK-MEL-2 = test: Growth inhibition of human SK-MEL-2 cells assessed as cell growth at 10 uM after 48 hrs by sulforhodamine B assay; assay type: functional; conditions: SK-MEL-2, 48 h, read-out: Activity
Malme-3M [2] = test: Growth inhibition of human MALME-3M cells after 48 hrs by sulforhodamine B assay; assay type: functional
UACC-62 = test: Growth inhibition of human UACC62 cells assessed as cell growth at 10 uM after 48 hrs by sulforhodamine B assay; assay type: functional; conditions: UACC-62, 48 h, read-out: Activity
HCT-116 = test: Growth inhibition of human HCT116 cells assessed as cell growth at 10 uM after 48 hrs by sulforhodamine B assay; assay type: functional; conditions: HCT-116, 48 h, read-out: Activity
NCI-H522 = test: Growth inhibition of human NCI-H522 cells after 48 hrs by sulforhodamine B assay; assay type: functional; conditions: NCI-H522, 48 h
SK-OV-3 = test: Growth inhibition of human SKOV3 cells after 48 hrs by sulforhodamine B assay; assay type: functional; conditions: SK-OV-3, 48 h
MCF7 = test: Growth inhibition of human MCF7 cells after 48 hrs by sulforhodamine B assay; assay type: functional; conditions: MCF7, 48 h
M14 = test: Growth inhibition of human M14 cells after 48 hrs by sulforhodamine B assay; assay type: functional; conditions: M14, 48 h
Malme-3M [3] = test: Growth inhibition of human MALME-3M cells assessed as cell growth at 10 uM after 48 hrs by sulforhodamine B assay; assay type: functional; conditions: read-out: Activity
786-0 = test: Growth inhibition of human 786-0 cells assessed as cell growth at 10 uM after 48 hrs by sulforhodamine B assay; assay type: functional; conditions: 786-0, 48 h, read-out: Activity
IGROV-1 [4] = test: Growth inhibition of human IGROV1 cells assessed as cell growth at 10 uM after 48 hrs by sulforhodamine B assay; assay type: functional; conditions: IGROV-1, 48 h, read-out: Activity
MDA-MB-435 = test: Growth inhibition of human MDA-MB-435 cells assessed as cell growth at 10 uM after 48 hrs by sulforhodamine B assay; assay type: functional; conditions: MDA-MB-435, 48 h, read-out: Activity
SF-295 = test: Growth inhibition of human SF295 cells after 48 hrs by sulforhodamine B assay; assay type: functional, cell-based; conditions: SF-295, 48 h
SW-620 = test: Growth inhibition of human SW620 cells assessed as cell growth at 10 uM after 48 hrs by sulforhodamine B assay; assay type: functional; conditions: SW-620, 48 h, read-out: Activity
PC-3 = test: Growth inhibition of human PC3 cells after 48 hrs by sulforhodamine B assay; assay type: functional, cell-based; conditions: PC-3, 48 h
NCI-H226 = test: Growth inhibition of human NCI-H226 cells after 48 hrs by sulforhodamine B assay; assay type: functional; conditions: NCI-H226, 48 h
SF-268 [5] = test: Growth inhibition of human SF268 cells assessed as cell growth at 10 uM after 48 hrs by sulforhodamine B assay; assay type: functional; conditions: SF-268, 48 h, read-out: Activity
CCRF-CEM = test: Growth inhibition of human CCRF-CEM cells after 48 hrs by sulforhodamine B assay; assay type: functional
SN12C = test: Growth inhibition of human SN12C cells after 48 hrs by sulforhodamine B assay; assay type: functional
[6] = Growth inhibition of human Hs 578T cells after 48 hrs by sulforhodamine B assay; assay type: functional
UO-31 = test: Growth inhibition of human UO31 cells assessed as cell growth at 10 uM after 48 hrs by sulforhodamine B assay; assay type: functional; conditions: UO-31, 48 h, read-out: Activity
LOX IMVI [7] = test: Growth inhibition of human LOXIMVI cells after 48 hrs by sulforhodamine B assay; assay type: functional
NCI-H460 = test: Growth inhibition of human NCI-H460 cells after 48 hrs by sulforhodamine B assay; assay type: functional; conditions: NCI-H460, 48 h
NCI-H23 = test: Growth inhibition of human NCI-H23 cells assessed as cell growth at 10 uM after 48 hrs by sulforhodamine B assay; assay type: functional; conditions: NCI-H23, 48 h, read-out: Activity
IGROV-1 [8] = test: Growth inhibition of human IGROV1 cells after 48 hrs by sulforhodamine B assay; assay type: functional; conditions: IGROV-1, 48 h
SNB-75 = test: Growth inhibition of human SNB75 cells after 48 hrs by sulforhodamine B assay; assay type: functional; conditions: SNB-75, 48 h
A498 = test: Growth inhibition of human A498 cells after 48 hrs by sulforhodamine B assay; assay type: functional, cell-based; conditions: A498, 48 h
HOP-62 = test: Growth inhibition of human HOP62 cells after 48 hrs by sulforhodamine B assay; assay type: functional; conditions: HOP-62, 48 h
SF-268 [9] = test: Growth inhibition of human SF268 cells after 48 hrs by sulforhodamine B assay; assay type: functional; conditions: SF-268, 48 h
HOP-92 = test: Growth inhibition of human HOP92 cells after 48 hrs by sulforhodamine B assay; assay type: functional, cell-based; conditions: HOP-92, 48 h
[10] = read-out: LC50 (the source's name)

## O=C(Nc1cccc(-n2cc(-c3ccncc3)c(-c3ccc(Cl)c(O)c3)n2)c1)Nc1cccc(C(F)(F)F)c1
LOX IMVI [1]
  growth at 10 µM: 23.8%
OVCAR-5
  GI50: 13.7 µM
  LC50 (concentration killing 50% of cells): > 32.5 µM
  TGI: > 32.5 µM
OVCAR-4
  GI50: 3.18 µM
  LC50 (concentration killing 50% of cells): > 32.5 µM
  TGI: > 32.5 µM
ACHN
  growth at 10 µM: 11.2%
SK-MEL-2
  growth at 10 µM: -25.6%
Malme-3M [2]
  GI50: 1.81 µM
  LC50 (concentration killing 50% of starting cells): > 32.5 µM
  TGI: 20.1 µM
UACC-62
  growth at 10 µM: 10.4%
HCT-116
  growth at 10 µM: 9.75%
NCI-H522
  GI50: 1.46 µM
  LC50 (concentration killing 50% of cells): > 32.5 µM
  TGI: 14.5 µM
SK-OV-3
  GI50: 4.97 µM
  TGI: > 32.5 µM
SK-OV-3; [10]
  CC50: > 32.5 µM
MCF7
  GI50: 1.34 µM
  LC50: > 32.5 µM
  TGI: > 32.5 µM
M14
  GI50: 1.4 µM
  LC50 (concentration killing 50% of cells): > 32.5 µM
  TGI: 10.8 µM
Malme-3M [3]
  growth at 10 µM: 1.16%
786-0
  growth at 10 µM: 34.4%
IGROV-1 [4]
  growth at 10 µM: 28.6%
MDA-MB-435
  growth at 10 µM: 15.6%
SF-295
  GI50: 0.962 µM
  IC50: 0.96 µM
  TGI: 4.26 µM
SF-295; [10]
  CC50: 29.2 µM
SW-620
  growth at 10 µM: 28.5%
PC-3
  GI50: 0.948 µM
  IC50: 0.95 µM
  TGI: 22.5 µM
PC-3; [10]
  CC50: > 32.5 µM
NCI-H226
  GI50: 7.35 µM
  TGI: > 32.5 µM
NCI-H226; [10]
  CC50: > 32.5 µM
SF-268 [5]
  growth at 10 µM: 28.5%
CCRF-CEM
  GI50: 1.4 µM
  LC50: > 32.5 µM
  TGI: > 32.5 µM
SN12C
  GI50: 2.01 µM
  TGI: > 32.5 µM
SN12C; [10]
  CC50: > 32.5 µM
[6]
  GI50: 3.31 µM
  TGI: > 32.5 µM
[6]; [10]
  CC50: > 32.5 µM
UO-31
  growth at 10 µM: 24.8%
LOX IMVI [7]
  GI50: 2.53 µM
  LC50: 32.4 µM
  TGI: 9.58 µM
NCI-H460
  GI50: 1.18 µM
  LC50: > 32.5 µM
  TGI: 29 µM
NCI-H23
  growth at 10 µM: 14.6%
IGROV-1 [8]
  GI50: 1.64 µM
  LC50 (concentration killing 50% of cells): > 32.5 µM
  TGI: > 32.5 µM
SNB-75
  GI50: 3.65 µM
  LC50 (lethal concentration, 50% net cell kill): > 32.5 µM
  TGI: > 32.5 µM
A498
  GI50: 2.24 µM
  IC50: 2.24 µM
  TGI: > 32.5 µM
A498; [10]
  CC50: > 32.5 µM
HOP-62
  GI50: 6.86 µM
  TGI: > 32.5 µM
HOP-62; [10]
  CC50: > 32.5 µM
SF-268 [9]
  GI50: 1.95 µM
  TGI: 15.8 µM
SF-268 [9]; [10]
  CC50: > 32.5 µM
HOP-92
  GI50: 0.509 µM
  IC50: 0.51 µM
  LC50: > 32.5 µM
  TGI: 2.23 µM

— ChEMBL document CHEMBL2440076, “New triarylpyrazoles as broad-spectrum anticancer agents: design, synthesis, and biological evaluation” (Eur J Med Chem, 2013)
